Read-outs that look alike come from different tables or passages of the source.
Legend:
[1] = system: G93A SOD1 B6SJL hybrid (G93A) model; assay: Disease progression score (JAX SOP) in G93A SOD1 transgenic mice; settings: 20 mg/kg/day vs. placebo
From the text: The disease progression score is based on the JAX SOP (Ludolph A C, Bendotti C, Blaugrund E, Hengerer B, Loffler J P, Martin J, Meininger V, Meyer T, Moussaoui S, Robberecht W, Scott S, Silani V, Van Den Berg L H (ENMC Group For The Establishment Of Guidelines For The Conduct Of Preclinical And Proof Of Concept Studies In ALS/MND Models). 2007, which is incorporated by reference).

[2] = system: G93A SOD1 B6SJL hybrid (G93A) model; settings: 20 mg/kg/d; for Heart / gastrocnemius: end of study;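 for HR survival (FIG. 14): dosing began after ALS onset in G93A SOD1 mice, with survival as the endpoint, defined humanely as the animal failing to regain upright posture within 30 s when placed sideways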;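 for HR survival (FIG. 16): dosing began after ALS onset in G93A SOD1 mice, with survival as the endpoint, defined humanely as the animal failing to regain upright posture within 30 s when placed sideways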
[3] = system: G93A SOD1 B6SJL hybrid (G93A) model; assay: Body weight and body composition (lean mass, fat mass; NMR scans) in G93A SOD1 transgenic mice; format: in vivo; settings: 20 mg/kg/d; for Average Δ fat mass / Average Δ lean mass / Average Δ body weight: per day alive after disease onset
[4] = system: G93A SOD1 B6SJL hybrid (G93A) model; settings: 20 mg/kg/day vs. placebo;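 for HR survival (FIG. 14): dosing began after ALS onset in G93A SOD1 mice, with survival as the endpoint, defined humanely as the animal failing to regain upright posture within 30 s when placed sideways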;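 for HR survival (FIG. 16): dosing began after ALS onset in G93A SOD1 mice, with survival as the endpoint, defined humanely as the animal failing to regain upright posture within 30 s when placed sideways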
Method: There were 16 mice in the S-oxprenolol group.
The primary endpoint was survival, humanely defined as the ability of the animal to right itself in 30 seconds after being laid on its side. Secondary endpoints were body weight, body composition, spontaneous activity and food intake. Body weight of the animals was assessed weekly until onset of disease. Additionally, body composition (fat mass and lean body mass) was assessed using NMR scans (EchoMRI-100, Echo Medical Systems, Houston, USA) every 4 days. After onset of disease, body weight and body composition were assessed every two days until the end of the study. All personal handling the animals was strictly blinded to the randomized treatment allocation.
To study the effect of S-oxprenolol on survival, survival was monitored over time.

Question: With C=CCOc1ccccc1OCC(O)CNC(C)C (racemic) [oxprenolol, 1-[2-(allyloxy)phenoxy]-3-(isopropylamino)propan-2-ol] as the compound, how does the “HR Progression from score 1 to score 2 (FIG. 17)” value [1] read?
Answer: The value was 0.60.

Question: And the “HR Progression from score 1 to score 3 (FIG. 19)” value [1]?
Answer: Its value is 0.60.

Question: What about the “HR Progression from score 2 to score 3 (FIG. 18)” value [1] of the same compound?
Answer: Its value is 0.77.

Question: What about the “BAT (brown adipose tissue)” value ([2]; all mice) of the same compound?
Answer: The value was 40.6 ± 2.8 mg.

Question: And the “EDL (extensor digitorum longus)” value ([2]; all mice)?
Answer: The value was 7.24 ± 0.41 mg.

Question: And the soleus ([2]; all mice)?
Answer: Its soleus is 4.99 ± 0.36 mg.

Question: What about the Heart ([2]; all mice) of the same compound?
Answer: Its Heart is 100.2 ± 3.2 mg.

Question: And the gastrocnemius ([2]; all mice)?
Answer: Its gastrocnemius is 52.2 ± 2.3 mg.

Question: And the “BAT (brown adipose tissue)” value ([2]; female mice)?
Answer: Its value is 35.2 ± 4.1 mg.

Question: And the “EDL (extensor digitorum longus)” value ([2]; female mice)?
Answer: Its value is 6.97 ± 0.36 mg.

Question: And the soleus ([2]; female mice)?
Answer: Its soleus is 4.76 ± 0.52 mg.

Question: What about the Heart ([2]; female mice) of the same compound?
Answer: Its Heart is 89.5 ± 2.4 mg.

Question: And the gastrocnemius ([2]; female mice)?
Answer: The gastrocnemius was 49.5 ± 2.1 mg.

Question: And the “BAT (brown adipose tissue)” value ([2]; male mice)?
Answer: The value was 45.7 ± 3.6 mg.

Question: And the “EDL (extensor digitorum longus)” value ([2]; male mice)?
Answer: The value was 7.49 ± 0.72 mg.

Question: What about the soleus ([2]; male mice) of the same compound?
Answer: Its soleus is 5.21 ± 0.51 mg.

Question: And the Heart ([2]; male mice)?
Answer: The Heart was 110.2 ± 2.9 mg.

Question: What about the gastrocnemius ([2]; male mice) of the same compound?
Answer: The gastrocnemius was 54.7 ± 3.9 mg.

Question: What about the Δ body weight ([3]; all mice) of the same compound?
Answer: The Δ body weight was -5.59 ± 0.48 g.

Question: What about the Δ fat mass ([3]; all mice) of the same compound?
Answer: Its Δ fat mass is -1.49 ± 0.12 g.

Question: What about the Δ lean mass ([3]; all mice) of the same compound?
Answer: Its Δ lean mass is -4.67 ± 0.42 g.

Question: What about the “Average Δ fat mass” value ([3]; all mice) of the same compound?
Answer: The value was -33.1 ± 2.6 mg/day.

Question: What about the “Average Δ lean mass” value ([3]; all mice) of the same compound?
Answer: The value was -102.0 ± 10.7 mg/day.

Question: And the Δ body weight ([3]; female mice)?
Answer: The Δ body weight was -5.27 ± 0.61 g.

Question: What about the Δ fat mass ([3]; female mice) of the same compound?
Answer: Its Δ fat mass is -1.64 ± 0.21 g.

Question: And the Δ lean mass ([3]; female mice)?
Answer: Its Δ lean mass is -3.76 ± 0.42 g.

Question: What about the “Average Δ body weight” value ([3]; female mice) of the same compound?
Answer: Its value is -122.5 ± 14.7 mg/day.

Question: And the “Average Δ fat mass” value ([3]; female mice)?
Answer: The value was -37.5 ± 3.7 mg/day.

Question: What about the “Average Δ lean mass” value ([3]; female mice) of the same compound?
Answer: The value was -85.8 ± 11.6 mg/day.

Question: What about the Δ body weight ([3]; male mice) of the same compound?
Answer: Its Δ body weight is -5.94 ± 0.77 g.

Question: What about the Δ fat mass ([3]; male mice) of the same compound?
Answer: Its Δ fat mass is -1.33 ± 0.13 g.

Question: And the Δ lean mass ([3]; male mice)?
Answer: The Δ lean mass was -5.64 ± 0.68 g.

Question: And the “Average Δ body weight” value ([3]; male mice)?
Answer: Its value is -124.8 ± 20.7 mg/day.

Question: And the “Average Δ fat mass” value ([3]; male mice)?
Answer: The value was -28.3 ± 3.1 mg/day.

Question: And the “Average Δ lean mass” value ([3]; male mice)?
Answer: The value was -119.4 ± 17.7 mg/day.

Question: And the “HR survival (FIG. 14)” value ([4]; all mice)?
Answer: Its value is 0.66.

Question: And the “HR survival (FIG. 16)” value ([4]; female mice)?
Answer: The value was 1.03.

Question: What about the “HR survival (FIG. 15)” value ([4]; male mice) of the same compound?
Answer: Its value is 0.38.

Source: US12303474B2, “S-enantiomerically enriched compositions of beta blockers for treating amyotrophic lateral sclerosis” (priority 2013, dated 2025)
